# From patent publication US11833204B2, “Visible light-activatable nanoparticles for cancer immunotherapy and use thereof” (KOREA INSTITUTE OF SCIENCE AND TECHNOLOGY, priority 2021, dated 2023)
# Experiments:
# [1] = test system: CT26 cells; assay: Apoptosis and necrosis of CT26 cells (Annexin V/PI flow cytometry); type: cell-based; conditions: CT26, visible light
# Method: The degrees of apoptosis and necrosis of cancer cells were quantitatively analyzed to accurately evaluate the anticancer effect of the self-assembled nanoparticles (LT-NPs). First, CT26 cells treated with doxorubicin (DOX), verteporfin (VPF), a mixture of doxorubicin and verteporfin (VPF+DOX) or the self-assembled nanoparticles (LT-NPs) and a laser were prepared as above and treated with 5 μg of Annexin V-FITC and 10 μg of PI solution for 10 min. Then, cells were cultured with a cell fixative for 10 min and further cultured with DAPI for 20 min. The degrees of apoptosis and necrosis were quantitatively analyzed using a flow cytometer (BD FACSVerse, BD bioscience, USA).
# [2] = test system: CT26 cells; assay: Immunogenic cell death: calreticulin expression; type: cell-based; conditions: CT26, 5 μM, 24 h, +L/−L
# Method: (§1) First, CT26 cells were plated in 35 mm cell culture dishes at a density of 1×10^5 cells/dish and doxorubicin (DOX) (5 μM), verteporfin (VPF) (5 μM) or the self-assembled nanoparticles (LT-NPs) (5 μM) were added to each dish. After 24-h culture, one half was exposed by irradiation with visible light using a 671 nm laser at 40 mW for 250 sec (+L) and the other half was not irradiated with visible light for comparison (−L). The immunogenic cell death of the self-assembled nanoparticles (LT-NPs) was evaluated using the cells and the cell culture media.
# Cells were stained with APC-conjugated CRT antibody for 12 h and observed with a confocal fluorescence microscope.
# [3] = test system: CT26 cells; assay: Immunogenic cell death: extracellular HSP70 and HMGB1 (Western blotting); type: cell-based; conditions: CT26, 5 μM, 24 h, +L/−L
# Method: as §1
# Before staining the cells with APC-conjugated CRT antibody, culture media were separated from the cells and the extracellular expression levels of HMGB1 and HSP70 were analyzed by Western blotting.
# Each cell culture medium was treated with RIPA buffer (Cell Signaling Technology) at 4° C. for 30 min and the protein amount of the lysate was analyzed using a Pierce BCA protein assay kit (Thermo Fisher Scientific) according to the manufacturer's protocol. After SDS-PAGE, proteins were transferred to a PVDF membrane (Bio-Rad), which was then treated with Tris-buffered saline (TBS-T) containing 5% skim milk and 0.1% Tween-20. The membrane was incubated with primary antibodies at 4° C. overnight. HSP70 and HMGB1 antibodies were used as the primary antibodies. The membrane was washed with TBS-T and incubated with a secondary antibody at room temperature for 1 h. The membrane was washed with TBS-T, treated with EZ-Western Lumi Pico or Femto reagent (DoGen), and analyzed using Fusion-Solo software (Vilber) according to the manufacturer's protocol to determine band intensities.
# [4] = Morphological analysis by transmission electron microscopy in saline; type: physicochemical; conditions: 1 mg in 1 mL physiological saline
# Method: The self-assembled nanoparticles (LT-NPs) prepared in Example 1, doxorubicin (DOX), and verteporfin (VPF) were used as samples. 1 mg of each sample was mixed with physiological saline (1 mL). […] The self-assembled nanoparticles (LT-NPs) were mixed with cathepsin B (Cat-B) protease (50 μg/mL). The mixture was allowed to react for 24 h.
# [5] = test system: CT26 cells; assay: Immunogenic cell death: extracellular ATP release; type: cell-based; conditions: CT26, 5 μM, 24 h, +L/−L
# Method: as §1
# ATP was analyzed using a commercially available ATP assay kit (Beyotime Biotechnology) according to the manufacturer's protocol.
morphology in physiological saline (TEM) [4],Compound,degree of apoptosis (and necrosis) [1],calreticulin expression [2],HMGB-1 release [3],HSP70 release [3],ATP release [5],"proportions of early apoptosis, late apoptosis and necrosis [1]"
aggregated,COc1cccc2c1C(=O)c1c(O)c3c(c(O)c1C2=O)C[C@@](O)(C(=O)CO)C[C@@H]3O[C@H]1C[C@H](N)[C@H](O)[C@H](C)O1 [doxorubicin],very little apoptosis,lowest,lowest,lowest,lowest,–
aggregated,verteporfin,considerable apoptosis and necrosis,relatively increased,relatively increased,relatively increased,relatively increased,increase the proportion of late apoptosis
